What was measured:
[1] = Chemical Stability Assay (HPLC, phosphate buffer pH 7.4, 37° C.); type: physicochemical; settings: stability to internal cyclization, read-out: chemical stability half-life (T1/2) (converted)
Description: For the determination of chemical stability, compounds of the present invention are assayed using the following protocol:
A solution of each DPP-IV compound was prepared in an appropriate mobile phase. This was injected and analyzed by HPLC to identify the parent drug peak in the chromatograms. Stability solutions were prepared in 50 mM phosphate buffer pH 7.4 adjusted to μ=0.155. Samples were weighed using a Mettler-Toledo microbalance and transferred into a 20 ml glass scintillation vial or a volumetric flask. The phosphate buffer pH 7.4 was added with an EDP Plus 10 ml electronic pipette. The samples were sonicated for approximately 2 minutes and filtered using a PTFE membrane syringe filter. The filtrate was transferred to amber HPLC vials and placed in an autosampler at 37° C. The first sample was immediately injected and counted as the time zero sample. The solution concentration was measured at various timepoints using an appropriate HPLC method. After data acquisition was completed, the chromatograms were processed for each compound. The rate and half-life were determined from a plot of log10 peak area remaining/peak area at zero time vs. exposure time @37° C. using Microsoft® Excel 2000. Rates of reaction and half-lives were calculated using a pseudo-first order kinetic model.

[2] = system: Insulin resistant female ZDF rats; experiment: acute oral glucose tolerance test (OGTT); type: in vivo, rat; settings: OGTT 2 gm/kg four hours later
Description: Compounds of the present invention are evaluated for the ability to treat diabetes using an acute oral glucose tolerance test (OGTT) as follows: Insulin resistant female ZDF rats, 11 weeks of age, on a normal chow diet, are fasted overnight. A baseline tail snip blood sample is taken to measure glucose levels (Precision PCx glucose meter, Abbott Laboratories, Abbott Park, Ill.) at the beginning of the experiment. Immediately after this baseline sample, compounds of the present invention (or placebo) are dosed orally. Four hours later, a tail snip blood glucose measurement is taken, immediately followed by an oral glucose dose (OGTT, 2 gm/kg). The glucose excursion is followed for 2 hr with samples taken at 10, 20, 30, 60 and 120 min post OGTT. These timed glucose data are used to construct a glucose excursion curve, from which an area under the glucose curve (AUGC) is determined. Data are reported as the baseline-adjusted area under the glucose curve (deltaAUGC) for drug and control groups.

C[C@H]1CC[C@@H](C(=O)N2CCC[C@H]2C#N)N1 [Comparative compound α]
half-life [1]: 5.3 h

N#C[C@@H]1CCCN1C(=O)[C@@H]1CC[C@H](c2ccccc2)N1 [Comparative compound γ]
half-life [1]: 12.2 h

N#C[C@@H]1CCCN1C(=O)[C@@H]1CC[C@H](COc2ccc(C(=O)O)c3ccccc23)N1 [Example 54, (2S)-1-{(5R)-5-((4-carboxynaphthalen-1-yloxy)methyl)-L-prolyl}-pyrrolidine-2-carbonitrile]
δ AUGC ([2]; 1.0 mg/kg oral): 7,600 mg/mL/dL | δ AUGC, change versus control ([2]; 1.0 mg/kg oral): −24% | δ AUGC ([2]; 3.0 mg/kg oral): 7,300 mg/mL/dL | δ AUGC, change versus control ([2]; 3.0 mg/kg oral): −27%
